Data as given in the NIST ThermoML archive (doi:10.1021/je060271a).

Settings: 323.15 K, Liquid, Vibrating tube method

CCCCC(=O)OCC(COC(=O)CCCC)(COC(=O)CCCC)COC(=O)CCCC [pentaerythritol tetrapentanoate]
Settings	mass density [kg/m3]
20383 kPa	1008.5
20411 kPa	1008.4
20440 kPa	1008.5
20474 kPa	1008.4
20502 kPa	1008.4
20532 kPa	1008.5
20561 kPa	1008.5
20596 kPa	1008.5
20625 kPa	1008.6
20659 kPa	1008.6
20689 kPa	1008.5
20718 kPa	1008.6
20747 kPa	1008.6
20783 kPa	1008.8
20813 kPa	1008.6
20848 kPa	1008.7
20877 kPa	1008.7
20908 kPa	1008.7
20944 kPa	1008.8
20974 kPa	1008.8
21004 kPa	1008.8
21035 kPa	1008.8
21072 kPa	1008.7
21102 kPa	1008.8
21133 kPa	1008.9
21170 kPa	1008.8
21202 kPa	1009
21233 kPa	1008.9
21271 kPa	1008.9
21302 kPa	1009
21334 kPa	1009.1
21366 kPa	1009
21404 kPa	1009
21436 kPa	1009.1
21467 kPa	1009.1
21506 kPa	1009.1
21538 kPa	1009
21570 kPa	1009.1
21602 kPa	1009.2
21640 kPa	1009.2
21673 kPa	1009.2
21712 kPa	1009.2
21744 kPa	1009.1
21778 kPa	1009.3
21817 kPa	1009.3
21851 kPa	1009.3
21883 kPa	1009.4
21916 kPa	1009.3
21956 kPa	1009.5
21989 kPa	1009.3
22029 kPa	1009.4
22063 kPa	1009.6
22097 kPa	1009.4
22137 kPa	1009.6
22171 kPa	1009.6
22206 kPa	1009.5
22241 kPa	1009.5
22282 kPa	1009.6
22316 kPa	1009.7
22351 kPa	1009.7
22393 kPa	1009.6
22429 kPa	1009.6
22457 kPa	1009.7
22500 kPa	1009.8
22542 kPa	1009.8
22578 kPa	1009.8
22621 kPa	1009.9
22658 kPa	1009.7
22697 kPa	1009.8
22736 kPa	1009.9
22782 kPa	1009.8
22818 kPa	1009.9
22851 kPa	1010
22882 kPa	1010
22921 kPa	1010.1
22951 kPa	1009.9
22978 kPa	1010.1
23006 kPa	1010
23030 kPa	1010
23059 kPa	1010.1
23083 kPa	1010.2
23108 kPa	1010.1
23132 kPa	1010.2
23156 kPa	1010.1
23180 kPa	1010.1
23209 kPa	1010.1
23233 kPa	1010.2
23262 kPa	1010.2
23287 kPa	1010.1
23311 kPa	1010.3
23336 kPa	1010.3
23364 kPa	1010.3
23389 kPa	1010.3
23414 kPa	1010.4
23444 kPa	1010.3
23468 kPa	1010.3
23497 kPa	1010.4
23523 kPa	1010.3
23547 kPa	1010.4
23572 kPa	1010.4
23603 kPa	1010.4
23627 kPa	1010.5
23657 kPa	1010.5
23683 kPa	1010.5
23708 kPa	1010.5
23738 kPa	1010.6
23763 kPa	1010.6
23790 kPa	1010.6
23820 kPa	1010.5
23846 kPa	1010.7
23871 kPa	1010.6
23902 kPa	1010.5
23928 kPa	1010.7
23954 kPa	1010.7
23985 kPa	1010.6
24011 kPa	1010.6
24037 kPa	1010.7
24063 kPa	1010.8
24094 kPa	1010.9
24121 kPa	1010.7
24148 kPa	1010.8
24180 kPa	1010.8
24206 kPa	1010.7
24237 kPa	1010.8
24264 kPa	1010.9
24291 kPa	1010.8
24318 kPa	1010.9
24350 kPa	1010.8
24378 kPa	1010.9
24405 kPa	1011
24437 kPa	1010.9
24464 kPa	1010.9
24497 kPa	1011.1
24525 kPa	1011
24552 kPa	1011
24580 kPa	1011.1
24612 kPa	1011
24640 kPa	1011
24667 kPa	1011.2
24701 kPa	1011.1
24728 kPa	1011.1
24761 kPa	1011.1
24789 kPa	1011.2
24817 kPa	1011.2
24845 kPa	1011.1
24879 kPa	1011.3
24908 kPa	1011.2
24936 kPa	1011.2
24970 kPa	1011.3
24999 kPa	1011.2
25027 kPa	1011.3
25056 kPa	1011.3
25091 kPa	1011.3
25119 kPa	1011.3
25148 kPa	1011.4
25182 kPa	1011.4
25212 kPa	1011.5
25247 kPa	1011.4
25278 kPa	1011.4
25307 kPa	1011.4
25336 kPa	1011.4
